By EC50 is commonly meant the concentration that produces a half-maximal response.

The assay has as its target T1, Human AhR (Homo sapiens, UniProt P35869).
T1 construct: expressed in transfected cells
T1 sequence (P35869 11-848): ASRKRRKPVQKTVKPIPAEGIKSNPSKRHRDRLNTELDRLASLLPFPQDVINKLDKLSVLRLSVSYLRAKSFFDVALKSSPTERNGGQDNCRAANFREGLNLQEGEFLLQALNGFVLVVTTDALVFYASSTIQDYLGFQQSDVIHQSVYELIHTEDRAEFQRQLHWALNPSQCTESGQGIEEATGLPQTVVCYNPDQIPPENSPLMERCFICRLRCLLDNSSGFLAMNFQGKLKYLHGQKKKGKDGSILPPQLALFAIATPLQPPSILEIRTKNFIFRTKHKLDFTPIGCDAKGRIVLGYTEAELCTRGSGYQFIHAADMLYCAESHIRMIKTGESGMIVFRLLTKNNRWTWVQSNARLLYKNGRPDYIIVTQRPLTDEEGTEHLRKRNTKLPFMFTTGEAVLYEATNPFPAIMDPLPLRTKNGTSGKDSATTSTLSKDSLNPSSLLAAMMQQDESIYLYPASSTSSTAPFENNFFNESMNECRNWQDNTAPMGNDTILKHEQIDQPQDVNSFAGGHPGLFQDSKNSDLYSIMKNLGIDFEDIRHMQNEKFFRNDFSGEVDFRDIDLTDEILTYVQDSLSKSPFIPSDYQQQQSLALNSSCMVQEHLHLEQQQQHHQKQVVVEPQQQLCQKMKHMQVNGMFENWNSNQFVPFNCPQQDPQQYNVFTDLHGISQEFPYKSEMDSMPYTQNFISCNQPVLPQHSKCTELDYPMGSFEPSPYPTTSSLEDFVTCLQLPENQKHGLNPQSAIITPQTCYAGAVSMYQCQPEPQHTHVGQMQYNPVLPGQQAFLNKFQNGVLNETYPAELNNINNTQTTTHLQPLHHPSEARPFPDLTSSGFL
Nature of the assay: hAHR Nuclear Translocation Assay. The assay is classed as cell-based. Particulars: AhR-EGFP nuclear translocation in Jump-In T-REx HEK293 cells, 45 minutes incubation, read-out: Rel EC50. The source says: The purpose of this assay is to measure the ability of compounds to bind to, activate, and induce the translocation of AhR into the nucleus of a cell for transcription. Stable cell lines were established using Jump-InTM T-RExTM HEK293 Retargeting Kit (Life Technologies). Human AhR cDNA was cloned into the pJTI R4 CMV-TO EGFP vector. The EGFP was cloned to the C-terminal of AHR to form AhR-EGFP chimera. The pJTI R4 CMV-TO AhR-EGFP vector was transfected using FuGENE® HD into Jump-InTM T-RExTM HEK293 cells. Transfected cells were selected using 2.5 mg/ml G418 for 10 to 14 days, then expanded, harvested, and suspended in freeze media (FBS with 8% DMSO) at 2×10^7 cells/ml, and aliquots were stored in liquid nitrogen. One day before the assay date, cells were thawed and resuspended in DMEM with 5% FBS in the presence of 1 μg/ml Doxycycline and plated into ploy-L-Lysine coated […]-384 ULTRA Microplates (Perkin Elmer) at 12,000 to 15,000 cells per well and incubated at 37° C. and 5% CO2 overnight. On the assay date, compound was serially diluted (1:2) into 384-well nunc plates with DMSO using acoustic dispensing (ECHO®). The dose response was a 20-point curve. […] The culture media was damped and 25 μl of DMEM plus 0.1% BSA was added, then 25 μL of compound in DMEM plus 0.1% BSA was added into cell plates. Cells were incubated compounds at 37° C. and 5% CO2 for 45 minutes. The final DMSO concentration was 0.2%. The media was damped after 45 minutes incubation. The cells were fixed with 40 μl of cold MeOH (-20° C.) for 20 minutes. The MeOH was damped and 50 μL of DPBS containing 1 μg/mL Hochst was added into the cell plates. The intensity of EGFP was quantitated by using Opera PHENIX® or OPERETTA® high content image system (Perkin Elmer) with 20× Water Objective and five field per well. The ratio of EGFP fluorescent intensity in nuclear over cytosol was analyzed using a 4-parameter nonlinear logistic equation to determine the potency of AhR agonists.

Where two headings read alike, the source gives them in different places.

As for `Cc1nnc2c(C(=O)Nc3ncc(F)cn3)cc3c(n12)CCC3C` (single isomer, unassigned) [Example 52, N-(5-Fluoropyrimidin-2-yl)-1,6-dimethyl-7,8-dihydro-6H-cyclopenta[e][1,2,4] triazolo[4,3-a]pyridine-4-carboxamide], the EC50 (class symbols) was greater than 50 nM. Same read-out and setting: next, `CC1CCc2c1cc(C(=O)Nc1ncc(C(F)(F)F)cn1)c1nncn21` (single isomer, unassigned) [Example 26, 6-Methyl-N-(5-(trifluoromethyl)pyrimidin-2-yl)-7,8-dihydro-6H-cyclopenta[e][1,2,4] triazolo[4,3-a]pyridine-4-carboxamide]: 1 to 10 nM; `O=C(Nc1ncc(F)cn1)c1cc2c(n3cnnc13)CCC2C1CC1` (single isomer, unassigned) [Example 67, 6-Cyclopropyl-N-(5-fluoropyrimidin-2-yl)-7,8-dihydro-6H-cyclopenta[e][1,2,4] triazolo[4,3-a]pyridine-4-carboxamide]: 1 to 10 nM; `CC1CCc2c1cc(C(=O)Nc1ccccn1)c1nncn21` (single isomer, unassigned) [Example 4]: greater than 50 nM. On the same count and under the same terms, next, `CC1CCc2c1cc(C(=O)Nc1ncccc1F)c1nncn21` (single isomer, unassigned) [Example 36, N-(3-Fluoropyridin-2-yl)-6-methyl-7,8-dihydro-6H-cyclopenta[e][1,2,4] triazolo[4,3-a]pyridine-4-carboxamide]: 1 to 10 nM; `CC(C)c1nnc2c(C(=O)Nc3ncc(F)cn3)cc3c(n12)CCC3C` (single isomer, unassigned) [Example 54, N-(5-Fluoropyrimidin-2-yl)-1-isopropyl-6-methyl-7,8-dihydro-6H-cyclopenta[e][1,2,4] triazolo[4,3-a]pyridine-4-carboxamide]: greater than 50 nM.

On to `C[C@@H]1CCc2c1cc(C(=O)Nc1ncc(F)cn1)c1nncn21` [Example 6, (R)-N-(5-Fluoropyrimidin-2-yl)-6-methyl-7,8-dihydro-6H-cyclopenta[e][1,2,4]triazolo [4,3-a]pyridine-4-carboxamide], for which the half-maximal effective concentration (EC50) (numeric values) came to 5.74 nM. For `CC1CCc2c1cc(C(=O)Nc1ccon1)c1nncn21` (single isomer, unassigned) [Example 32], the EC50 (class symbols) was in the range of 1 to 10 nM. As to `O=C(Nc1ncc(F)cn1)c1cc2c(n3cnnc13)CCC2C1CCC1` (single isomer, unassigned) [Example 64, 6-Cyclobutyl-N-(5-fluoropyrimidin-2-yl)-7,8-dihydro-6H-cyclopenta[e][1,2,4] triazolo[4,3-a]pyridine-4-carboxamide], the EC50 (class symbols) fell in the range of 1 to 10 nM. As to `CC(C)OC1CCc2c1cc(C(=O)Nc1ncc(F)cn1)c1nncn21` (single isomer, unassigned) [Example 51, N-(5-Fluoropyrimidin-2-yl)-6-isopropoxy-7,8-dihydro-6H-cyclopenta[e][1,2,4] triazolo[4,3-a]pyridine-4-carboxamide], the EC50 (class symbols) is greater than 50 nM. In the case of `CC1CCc2c1cc(C(=O)Nc1ccn(C)n1)c1nncn21` (single isomer, unassigned) [Example 63, 6-Methyl-N-(1-methyl-1H-pyrazol-3-yl)-7,8-dihydro-6H-cyclopenta[e][1,2,4] triazolo[4,3-a]pyridine-4-carboxamide], the EC50 (class symbols) is 10 to 50 nM. `O=C(Nc1ncc(F)cn1)c1cc2c(n3cnnc13)CCC2C1CCC1` (single isomer, unassigned) [Example 65, 6-Cyclobutyl-N-(5-fluoropyrimidin-2-yl)-7,8-dihydro-6H-cyclopenta[e][1,2,4] triazolo[4,3-a]pyridine-4-carboxamide]: for the setting “class symbols”, the EC50 lay within 1 to 10 nM.

Values taken from patent US20240199608A1 (Eli Lilly and Company, priority 2022, published 2024).
